{"source": "paper PMC8880313", "about": "“Discovery of Novel Andrographolide Derivatives as Antiviral Inhibitors against Human Enterovirus A71” (Pharmaceuticals, 2022)", "key": {"EV-A71 [1]": {"tested_on": "EV-A71", "test": "Post-treatment assay with viral plaque assay", "type": "cell-based, human enterovirus A71 (EV-A71) strain 41", "settings": "for reduction in viral titre: post-treatment, 12 hpi", "experimental": "Firstly, we performed cell viability assay to evaluate the cytotoxicity profile of the 19 hits. Cells seeded overnight were treated with the hit compounds at 10 µM. […] Anti-EV-A71 activity of AGP-253 had been illustrated and discussed previously. We were particularly interested in ZAF-46 and ZAF-47 as they belonged to the same series bearing novel 14-quinolinoxy and 17-hydro-8,9-olefin modifications (Figure 2b) that could potentially open up new targets for EV-A71 therapeutics. Additional cell viability assays were performed for ZAF-46 and ZAF-47 at different concentrations to identify the low cytotoxic concentrations for downstream post-treatment assays. For post-treatment assays, cells seeded overnight were infected with EV-A71 and subsequently treated with ZAF-46 and ZAF-47 at different concentrations. […] Treatment with ZAF-46 led to 1.4 log reduction at 10 µM and 2.4 log reduction at 20 µM (Figure 2c) while treatment with ZAF-47 led to 0.8 log reduction at 5 µM, 1.1 log reduction at 10 µM and 2.1 log reduction at 20 µM (Figure 2d). CC50 and IC50 for both compounds were determined and used to derive their SI (Table 2). ZAF-47 was selected for further downstream analysis due to its higher SI value which indicate higher pharmacological value for clinical use.\n(§1) To determine the inhibitory profiles of the hits, post treatment assay was performed. Seeded 24-well plates, with 1.5 × 10^5 RD cells per well, were incubated overnight at 37 °C with 5% CO2. The seeded cells were infected with EV-A71 (100 µL per well, MOI = 1) for 1 h at 37 °C with 5% CO2 and then rinsed with 1 mL of PBS twice. Different concentrations of the hits were used to treat the infected cells for 12 h at 37 °C with 5% CO2. At 12 hpi, the plates were frozen and thawed for 2 cycles (−80°C; 37 °C) before collection of supernatants to measure the viral titres via viral plaque assay.\nMeasurement of the viral titres from collected supernatants was derived from viral plaque assays. To do this, 24-well plates, seeded with 2.4 × 10^5 RD cells per well, were used in plaque assays for EV-A71, EV-D68, Echo7, CV-A6, CV-A16 and CV-A24 while 24-well plates, seeded with 1.2 × 10^5 Vero cells per well, were used in plaque assays for CV-B5. Seeded cells were incubated overnight at 37 °C with 5% CO2. Viral supernatants were diluted from 10^−1 to 10^−7 in reduced serum DMEM before infecting the cells with a volume of 100 µL for 1 h at 37 °C with 5% CO2 (33 °C instead for EV-D68). Cells were rinsed twice with PBS before overlaying with 1 mL of reduced serum DMEM containing 0.5% agarose (Vivantis, Shah Alam, Malaysia). Cells infected with Echo7 supernatants were incubated for 2 days, cells infected with CV-A24 and CV-B5 supernatants were incubated for 3 days and cells infected with EV-A71, CV-A6, CV-A16 and EV-D68 supernatants were incubated for 4 days for the formation of plaques. Subsequently, the cells were fixed and stained overnight with 4% paraformaldehyde and 1% crystal violet (Sigma-Aldrich). Subsequent formation of viral plaques was counted manually to quantify the viral titre in PFU/mL"}, "CV-A6": {"tested_on": "CV-A6", "test": "Post-treatment assay, antiviral spectrum", "type": "cell-based, Coxsackievirus A6", "experimental": "(§2) We were also interested in the antiviral potential of ZAF-47 against other Enteroviruses. As such, we performed post-treatment assay on RD cells infected with other Enteroviruses such as CV-A16, CV-A6, Echo7, CV-B5, CV-A24 and EV-D68.\nas §1\n(§3) Measurement of the viral titres from collected supernatants was derived from viral plaque assays. To do this, 24-well plates, seeded with 2.4 × 10^5 RD cells per well, were used in plaque assays for EV-A71, EV-D68, Echo7, CV-A6, CV-A16 and CV-A24 while 24-well plates, seeded with 1.2 × 10^5 Vero cells per well, were used in plaque assays for CV-B5. Seeded cells were incubated overnight at 37 °C with 5% CO2. […] Subsequent formation of viral plaques was counted manually to quantify the viral titre in PFU/mL […]"}, "Echo7": {"tested_on": "Echo7", "test": "Post-treatment assay, antiviral spectrum", "type": "cell-based, Echovirus 7 strain Wallace", "experimental": "as §2, §1, §3"}, "CV-B5": {"tested_on": "CV-B5", "test": "Post-treatment assay, antiviral spectrum", "type": "cell-based, Coxsackievirus B5", "experimental": "as §2, §1, §3"}, "EV-D68": {"tested_on": "EV-D68", "test": "Post-treatment assay, antiviral spectrum", "type": "cell-based, Enterovirus D68", "experimental": "as §2, §1, §3"}, "EV-A71 [2]": {"tested_on": "EV-A71", "test": "Pre-treatment assay", "type": "cell-based, human enterovirus A71 (EV-A71) strain 41", "settings": "pre-treatment 2 h, highest concentration, 12 hpi", "experimental": "To confirm this finding, assays to investigate the effect of ZAF-47 on EV-A71 entry into cells were performed. With pre-treatment assay, we first treated the cells with different concentrations of ZAF-47 before subjecting them to EV-A71 infection. The aim was to investigate if ZAF-47 was able to bind to host surface receptors which would prevent the virions from binding and thus blocking viral entry. […] Even at the highest concentration, the reduction in viral titre (0.8 log10 PFU/mL decrease) was not as pronounced as post-treatment and could likely be due to drug toxicity. Thus, it is unlikely that ZAF-47 inhibits EV-A71 infection by binding with host receptors to block viral entry. With co-treatment assay, we first treated EV-A71 virions with ZAF-47 for 30 min before infecting the cells. The aim was to investigate if ZAF-47 was able to bind to viral surface proteins which would prevent the virions from binding to the host receptors and thus blocking viral entry. […] Thus, it is unlikely that ZAF-47 blocks EV-A71 entry into host cells by binding to viral surface proteins. Instead, using entry bypass assay, we were able to deduce that ZAF-47 most likely targets EV-A71 post-entry stages. […]\nSeeded 24-well plates, with 1.5 × 10^5 RD cells per well, were incubated overnight at 37 °C with 5% CO2. […] The plates were frozen down at 12 hpi for viral titre quantification using viral plaque assay."}}}
{"smiles": "CC(=O)OC[C@]1(C)C(=O)CC[C@@]2(C)C(C/C=C3/C(=O)OC[C@@H]3Oc3cccc4cccnc34)=C(C)CC[C@@H]21", "note": "[ZAF-47, (14β)-(8′-Quinolinoxy)-3-ketone-9-dehydro-17-hydro-19-acetoxy–andrographolide]", "values": [{"measurement": "reduction in viral titre", "setting": "EV-A71 [1]; 5 µM", "value": 0.8, "unit": "log"}, {"measurement": "reduction in viral titre", "setting": "EV-A71 [1]; 10 µM", "value": 1.1, "unit": "log"}, {"measurement": "reduction in viral titre", "setting": "EV-A71 [1]; 20 µM", "value": 2.1, "unit": "log"}, {"measurement": "IC50", "setting": "EV-A71 [1]; Enterovirus A, EVA71, EV-A71-infected RD cells, MOI = 1, 12 h treatment, viral plaque assay", "value": 2.06, "unit": "µM"}, {"measurement": "Selectivity Index (SI)", "setting": "EV-A71 [1]; SI = CC50/IC50", "value": 14.35}, {"measurement": "viral titre", "setting": "CV-A6; 10 µM, CV-A6-infected RD cells", "value": "reducing the viral titres of the above-listed enteroviruses significantly"}, {"measurement": "IC50", "setting": "CV-A6; CVA6, CV-A6, Enterovirus A, drug treatment duration 96 h, RD cells", "value": 3.16, "unit": "µM"}, {"measurement": "viral titre", "setting": "Echo7; 10 µM, Echo7-infected RD cells", "value": "reducing the viral titres of the above-listed enteroviruses significantly"}, {"measurement": "IC50", "setting": "Echo7; Echo7, Enterovirus B, drug treatment duration 12 h, RD cells", "value": 6.7, "unit": "µM"}, {"measurement": "viral titre", "setting": "CV-B5; 10 µM, CV-B5-infected RD cells", "value": "reducing the viral titres of the above-listed enteroviruses significantly"}, {"measurement": "IC50", "setting": "CV-B5; CVB5, CV-B5, Enterovirus B, drug treatment duration 12 h, RD cells", "value": 2.46, "unit": "µM"}, {"measurement": "viral titre", "setting": "EV-D68; 10 µM, EV-D68-infected RD cells", "value": "reducing the viral titres of the above-listed enteroviruses significantly"}, {"measurement": "IC50", "setting": "EV-D68; EVD68, EV-D68, Enterovirus D, drug treatment duration 12 h, RD cells", "value": 5.1, "unit": "µM"}, {"measurement": "reduction in viral titre", "setting": "EV-A71 [2]", "value": 0.8, "unit": "log10 PFU/mL"}]}
